# Reference: ChEMBL document CHEMBL5365424, “Development of a highly potent and selective degrader of LRRK2” (Bioorg Med Chem Lett, 2023)
# The source made the active and inactive calls. The rule behind the calls is not given here.
# Tests used:
# [1] = biological target: T1, Leucine-rich repeat serine/threonine-protein kinase 2 (Homo sapiens, UniProt Q5S007); assay: Inhibition of recombinant human GST-tagged LRRK2 (970 to 2527 residues) expressed in insect cells using LRRKtide as substrate measured after 1 hr by Adapta TR-FRET assay; set-up: species or system Insect cell
# [2] = biological target: Leucine-rich repeat serine/threonine-protein kinase 2 (Homo sapiens, UniProt Q5S007, G2019S); assay: Inhibition of recombinant human GST-tagged LRRK2 G2019S mutant (970 to 2527 residues) expressed in insect cells using LRRKtide as substrate measured after 1 hr by Adapta TR-FRET assay; set-up: species or system Insect cell
# [3] = biological target: T2, Protein cereblon/Leucine-rich repeat serine/threonine-protein kinase 2 (Mus musculus) (UniProt Q5S006+Q8C7D2); assay: Protac activity at CRBN/LRRK2 in MEF cells assessed as induction of LRRK2 degradation at 10 to 1000 nM incubated for 1 to 48 hrs by Western blot analysis; type: cell-based; details: dose 10-1000 nM, time 1-48 hrs
# [4] = system: von Hippel-Lindau disease tumor suppressor/Leucine-rich repeat serine/threonine-protein kinase 2 (Mus musculus), Q5S006+P40338 [R1441C]; assay: Protac activity at VHL/LRRK2 R1441C mutant in MEF cells assessed as induction of LRRK2 degradation incubated for 48 hrs by Western blot analysis; type: cell-based
# [5] = biological target: von Hippel-Lindau disease tumor suppressor/Leucine-rich repeat serine/threonine-protein kinase 2 (Mus musculus) (UniProt Q5S006+P40338); assay: Protac activity at VHL/LRRK2 in MEF cells assessed as induction of LRRK2 degradation measured after 48 hrs by Western blot analysis; type: cell-based
# [6] = biological target: Leucine-rich repeat serine/threonine-protein kinase 2 (Mus musculus) (UniProt Q5S006); assay: Inhibition of LRRK2 in MEF cells assessed as reduction in pS935 phosphorylation measured after 24 to 48 hrs by Western blot analysis; type: cell-based; details: time 24-48 hrs
# [7] = biological target: T2, Protein cereblon/Leucine-rich repeat serine/threonine-protein kinase 2 (Mus musculus); assay: Protac activity at CRBN/LRRK2 in MEF cells assessed as induction of LRRK2 degradation at 1000 nM incubated for 48 hrs by Western blot analysis; type: cell-based
# [8] = biological target: T2, Protein cereblon/Leucine-rich repeat serine/threonine-protein kinase 2 (Mus musculus); assay: Protac activity at CRBN/LRRK2 in MEF cells assessed as induction of LRRK2 degradation at 1 uM incubated for 48 hrs in the presence of MLi-2 by Western blot analysis; type: cell-based
# [9] = system: Protein cereblon/Leucine-rich repeat serine/threonine-protein kinase 2 (Mus musculus), Q5S006+Q8C7D2 [R1441C]; assay: Protac activity at CRBN/LRRK2 R1441C mutant in MEF cells assessed as induction of LRRK2 degradation at 1 uM incubated for 48 hrs in presence of MLi-2 by Western blot analysis; type: cell-based
# [10] = biological target: T2, Protein cereblon/Leucine-rich repeat serine/threonine-protein kinase 2 (Mus musculus); assay: Protac activity at CRBN/LRRK2 in MEF cells assessed as induction of LRRK2 degradation at 1 uM incubated for 48 hrs in presence of cereblon degrader ZXH-03-153 by Western blot analysis; type: cell-based
# [11] = system: Protein cereblon/Leucine-rich repeat serine/threonine-protein kinase 2 (Mus musculus), Q5S006+Q8C7D2 [R1441C]; assay: Protac activity at CRBN/LRRK2 R1441C mutant in MEF cells assessed as induction of LRRK2 degradation at 1 uM incubated for 48 hrs in presence of cereblon degrader ZXH-03-153 by Western blot analysis; type: cell-based
# [12] = biological target: T1, Leucine-rich repeat serine/threonine-protein kinase 2; assay: Inhibition of human wild-type partial length LRRK2 (H970 to E2527 residues) expressed in mammalian expression system at 1 uM by Kinomescan assay relative to control
# [13] = system: Protein cereblon/Leucine-rich repeat serine/threonine-protein kinase 2 (Mus musculus), Q5S006+Q8C7D2 [R1441C]; assay: Protac activity at CRBN/LRRK2 R1441C mutant in MEF cells assessed as induction of LRRK2 degradation at 1 uM incubated for 48 hrs by Western blot analysis; type: cell-based
# [14] = biological target: T2, Protein cereblon/Leucine-rich repeat serine/threonine-protein kinase 2 (Mus musculus); assay: Protac activity at CRBN/LRRK2 in MEF cells assessed as induction of LRRK2 degradation at 1 uM incubated for 48 hrs by Western blot analysis; type: cell-based
# [15] = biological target: Protein cereblon/Leucine-rich repeat serine/threonine-protein kinase 2 (Homo sapiens) (UniProt Q5S007+Q96SW2); assay: Protac activity at CRBN/LRRK2 in human MOLT-4 cells assessed as induction of LRRK2 degradation at 1 uM by proteomic analysis; type: cell-based
# [16] = biological target: Cereblon/Ikaros (Homo sapiens) (UniProt Q96SW2+Q13422); assay: Protac activity at CRBN/IKZF1 in human MOLT-4 cells assessed as induction of IKZF1 degradation at 1 uM by proteomic analysis; type: cell-based
# [17] = biological target: Protein cereblon/Zinc finger protein Aiolos (Homo sapiens) (UniProt Q96SW2+Q9UKT9); assay: Protac activity at CRBN/IKZF3 in human MOLT-4 cells assessed as induction of IKZF3 degradation at 1 uM by proteomic analysis; type: cell-based
# [18] = biological target: Protein cereblon/E3 ubiquitin-protein ligase ZFP91 (Homo sapiens) (UniProt Q96SW2+Q96JP5); assay: Protac activity at CRBN/ZFP91 in human MOLT-4 cells assessed as induction of ZFP91 degradation at 1 uM by proteomic analysis; type: cell-based
# [19] = biological target: Protein cereblon/Cyclin-G-associated kinase (Homo sapiens) (UniProt O14976+Q96SW2); assay: Protac activity at CRBN/GAK in human MOLT-4 cells assessed as induction of GAK degradation at 1 uM by proteomic analysis; type: cell-based
# [20] = biological target: T3, Protein cereblon/Cyclin-G-associated kinase (Mus musculus) (UniProt Q8C7D2+Q99KY4); assay: Protac activity at CRBN/GAK in MEF cells assessed as induction of GAK degradation at 1 uM measured after 48 hrs by Western blot analysis; type: cell-based
# [21] = biological target: T3, Protein cereblon/Cyclin-G-associated kinase (Mus musculus); assay: Protac activity at CRBN/GAK in LRRK2 knockout MEF cells assessed as induction of GAK degradation at 1 uM measured after 48 hrs by Western blot analysis; type: cell-based
# [22] = biological target: Leucine-rich repeat serine/threonine-protein kinase 2 (Mus musculus) (UniProt Q5S006); assay: Inhibition of LRRK2 in MEF cells assessed as reduction in pS935 phosphorylation at 10 to 1000 nM measured after 24 to 48 hrs by Western blot analysis; type: cell-based; details: dose 10-1000 nM, time 24-48 hrs
# [23] = biological target: Leucine-rich repeat serine/threonine-protein kinase 2 (Mus musculus) (UniProt Q5S006); assay: Inhibition of LRRK2 in MEF cells assessed as reduction in Rab10 phosphorylation at 10 to 1000 nM measured after 24 to 48 hrs by Western blot analysis; type: cell-based; details: dose 10-1000 nM, time 24-48 hrs
# [24] = system: Leucine-rich repeat serine/threonine-protein kinase 2 (Homo sapiens), Q5S007 [G2019S]; assay: Inhibition of human partial length LRRK2 G2019S mutant (H970 to E2527 residues) expressed in mammalian expression system at 1 uM by Kinomescan assay relative to control
# [25] = biological target: Leucine-rich repeat serine/threonine-protein kinase 2 (Mus musculus) (UniProt Q5S006); assay: Induction of LRRK2 degradation in MEF cells by Western blot analysis; type: cell-based
# [26] = biological target: T3, Protein cereblon/Cyclin-G-associated kinase (Mus musculus); assay: Induction of GAK degradation in MEF cells at 1 uM measured after 48 hrs by Western blot analysis; type: cell-based
# [27] = biological target: Leucine-rich repeat serine/threonine-protein kinase 2 (Mus musculus) (UniProt Q5S006); assay: Induction of LRRK2 degradation in MEF cells at 100 nM measured after 2 hrs by Western blot analysis; type: cell-based
# Sequence of Leucine-rich repeat serine/threonine-protein kinase 2 (Homo sapiens, UniProt Q5S007, G2019S) (Q5S007 whole entry G2019S, the tested form may be a part): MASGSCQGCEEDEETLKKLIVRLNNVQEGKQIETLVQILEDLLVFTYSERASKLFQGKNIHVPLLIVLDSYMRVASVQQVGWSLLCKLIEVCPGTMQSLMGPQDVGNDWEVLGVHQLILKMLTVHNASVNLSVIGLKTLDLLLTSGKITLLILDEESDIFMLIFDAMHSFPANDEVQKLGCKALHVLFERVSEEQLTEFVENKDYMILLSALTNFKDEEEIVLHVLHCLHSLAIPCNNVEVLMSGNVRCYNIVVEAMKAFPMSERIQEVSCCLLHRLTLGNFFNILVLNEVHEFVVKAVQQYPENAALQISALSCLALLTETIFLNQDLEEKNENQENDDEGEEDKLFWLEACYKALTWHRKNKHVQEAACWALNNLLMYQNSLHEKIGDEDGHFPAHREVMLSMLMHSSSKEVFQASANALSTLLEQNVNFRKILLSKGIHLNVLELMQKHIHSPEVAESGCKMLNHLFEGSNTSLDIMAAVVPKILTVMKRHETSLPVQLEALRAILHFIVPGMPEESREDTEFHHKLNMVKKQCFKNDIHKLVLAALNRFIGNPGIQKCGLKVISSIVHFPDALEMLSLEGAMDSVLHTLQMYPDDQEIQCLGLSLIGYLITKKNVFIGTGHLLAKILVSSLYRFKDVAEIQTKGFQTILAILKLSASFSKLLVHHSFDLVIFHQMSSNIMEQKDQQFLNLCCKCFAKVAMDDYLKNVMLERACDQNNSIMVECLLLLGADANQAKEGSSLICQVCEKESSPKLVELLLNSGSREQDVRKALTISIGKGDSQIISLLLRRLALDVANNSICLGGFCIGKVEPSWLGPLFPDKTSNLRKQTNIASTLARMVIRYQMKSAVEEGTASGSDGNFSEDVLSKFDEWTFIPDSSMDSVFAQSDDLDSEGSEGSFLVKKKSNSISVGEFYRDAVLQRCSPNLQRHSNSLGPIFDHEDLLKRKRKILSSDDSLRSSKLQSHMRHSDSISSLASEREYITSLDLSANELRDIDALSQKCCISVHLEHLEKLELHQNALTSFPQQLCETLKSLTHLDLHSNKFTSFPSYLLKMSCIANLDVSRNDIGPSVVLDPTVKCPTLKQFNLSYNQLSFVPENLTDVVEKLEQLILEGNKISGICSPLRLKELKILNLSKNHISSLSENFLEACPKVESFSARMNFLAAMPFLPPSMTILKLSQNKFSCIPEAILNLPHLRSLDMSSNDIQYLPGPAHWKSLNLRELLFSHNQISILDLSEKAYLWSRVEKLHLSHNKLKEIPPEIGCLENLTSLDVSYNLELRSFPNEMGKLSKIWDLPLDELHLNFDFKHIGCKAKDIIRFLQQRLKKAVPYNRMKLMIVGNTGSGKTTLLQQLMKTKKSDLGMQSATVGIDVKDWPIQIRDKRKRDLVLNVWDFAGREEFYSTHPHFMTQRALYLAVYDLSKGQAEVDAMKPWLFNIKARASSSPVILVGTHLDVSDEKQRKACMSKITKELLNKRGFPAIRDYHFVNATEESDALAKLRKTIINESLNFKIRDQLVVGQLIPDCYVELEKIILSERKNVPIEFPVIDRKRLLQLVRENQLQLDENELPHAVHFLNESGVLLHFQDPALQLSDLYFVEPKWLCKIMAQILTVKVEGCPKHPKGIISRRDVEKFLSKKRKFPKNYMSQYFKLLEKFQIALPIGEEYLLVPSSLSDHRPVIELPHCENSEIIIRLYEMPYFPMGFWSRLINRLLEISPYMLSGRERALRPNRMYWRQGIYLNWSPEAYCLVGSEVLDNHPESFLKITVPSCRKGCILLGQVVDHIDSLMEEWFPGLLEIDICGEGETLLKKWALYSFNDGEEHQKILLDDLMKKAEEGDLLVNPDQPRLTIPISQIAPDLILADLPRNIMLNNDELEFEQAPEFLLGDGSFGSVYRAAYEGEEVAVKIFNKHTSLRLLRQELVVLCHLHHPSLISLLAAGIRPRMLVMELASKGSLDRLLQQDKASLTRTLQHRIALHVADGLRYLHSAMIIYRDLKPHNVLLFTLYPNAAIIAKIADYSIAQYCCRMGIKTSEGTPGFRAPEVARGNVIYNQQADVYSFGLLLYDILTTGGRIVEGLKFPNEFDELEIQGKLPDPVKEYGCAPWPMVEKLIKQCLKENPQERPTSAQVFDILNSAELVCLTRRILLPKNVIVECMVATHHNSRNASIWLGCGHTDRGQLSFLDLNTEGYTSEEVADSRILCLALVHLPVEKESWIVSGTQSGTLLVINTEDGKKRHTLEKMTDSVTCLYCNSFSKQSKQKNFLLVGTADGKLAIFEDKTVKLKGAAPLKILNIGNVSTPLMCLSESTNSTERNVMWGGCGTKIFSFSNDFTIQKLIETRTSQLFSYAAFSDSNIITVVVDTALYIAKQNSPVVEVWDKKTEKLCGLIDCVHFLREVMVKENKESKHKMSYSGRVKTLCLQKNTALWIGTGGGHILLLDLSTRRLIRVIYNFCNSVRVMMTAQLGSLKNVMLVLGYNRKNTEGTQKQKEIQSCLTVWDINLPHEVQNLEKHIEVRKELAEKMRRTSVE
# T1 sequence (Q5S007 whole entry, the tested form may be a part): as the sequence (Q5S007 whole entry G2019S, the tested form may be a part) above, with S2019G counted along it
# Sequence of Leucine-rich repeat serine/threonine-protein kinase 2 (Mus musculus) (Q5S006 whole entry, the tested form may be a part): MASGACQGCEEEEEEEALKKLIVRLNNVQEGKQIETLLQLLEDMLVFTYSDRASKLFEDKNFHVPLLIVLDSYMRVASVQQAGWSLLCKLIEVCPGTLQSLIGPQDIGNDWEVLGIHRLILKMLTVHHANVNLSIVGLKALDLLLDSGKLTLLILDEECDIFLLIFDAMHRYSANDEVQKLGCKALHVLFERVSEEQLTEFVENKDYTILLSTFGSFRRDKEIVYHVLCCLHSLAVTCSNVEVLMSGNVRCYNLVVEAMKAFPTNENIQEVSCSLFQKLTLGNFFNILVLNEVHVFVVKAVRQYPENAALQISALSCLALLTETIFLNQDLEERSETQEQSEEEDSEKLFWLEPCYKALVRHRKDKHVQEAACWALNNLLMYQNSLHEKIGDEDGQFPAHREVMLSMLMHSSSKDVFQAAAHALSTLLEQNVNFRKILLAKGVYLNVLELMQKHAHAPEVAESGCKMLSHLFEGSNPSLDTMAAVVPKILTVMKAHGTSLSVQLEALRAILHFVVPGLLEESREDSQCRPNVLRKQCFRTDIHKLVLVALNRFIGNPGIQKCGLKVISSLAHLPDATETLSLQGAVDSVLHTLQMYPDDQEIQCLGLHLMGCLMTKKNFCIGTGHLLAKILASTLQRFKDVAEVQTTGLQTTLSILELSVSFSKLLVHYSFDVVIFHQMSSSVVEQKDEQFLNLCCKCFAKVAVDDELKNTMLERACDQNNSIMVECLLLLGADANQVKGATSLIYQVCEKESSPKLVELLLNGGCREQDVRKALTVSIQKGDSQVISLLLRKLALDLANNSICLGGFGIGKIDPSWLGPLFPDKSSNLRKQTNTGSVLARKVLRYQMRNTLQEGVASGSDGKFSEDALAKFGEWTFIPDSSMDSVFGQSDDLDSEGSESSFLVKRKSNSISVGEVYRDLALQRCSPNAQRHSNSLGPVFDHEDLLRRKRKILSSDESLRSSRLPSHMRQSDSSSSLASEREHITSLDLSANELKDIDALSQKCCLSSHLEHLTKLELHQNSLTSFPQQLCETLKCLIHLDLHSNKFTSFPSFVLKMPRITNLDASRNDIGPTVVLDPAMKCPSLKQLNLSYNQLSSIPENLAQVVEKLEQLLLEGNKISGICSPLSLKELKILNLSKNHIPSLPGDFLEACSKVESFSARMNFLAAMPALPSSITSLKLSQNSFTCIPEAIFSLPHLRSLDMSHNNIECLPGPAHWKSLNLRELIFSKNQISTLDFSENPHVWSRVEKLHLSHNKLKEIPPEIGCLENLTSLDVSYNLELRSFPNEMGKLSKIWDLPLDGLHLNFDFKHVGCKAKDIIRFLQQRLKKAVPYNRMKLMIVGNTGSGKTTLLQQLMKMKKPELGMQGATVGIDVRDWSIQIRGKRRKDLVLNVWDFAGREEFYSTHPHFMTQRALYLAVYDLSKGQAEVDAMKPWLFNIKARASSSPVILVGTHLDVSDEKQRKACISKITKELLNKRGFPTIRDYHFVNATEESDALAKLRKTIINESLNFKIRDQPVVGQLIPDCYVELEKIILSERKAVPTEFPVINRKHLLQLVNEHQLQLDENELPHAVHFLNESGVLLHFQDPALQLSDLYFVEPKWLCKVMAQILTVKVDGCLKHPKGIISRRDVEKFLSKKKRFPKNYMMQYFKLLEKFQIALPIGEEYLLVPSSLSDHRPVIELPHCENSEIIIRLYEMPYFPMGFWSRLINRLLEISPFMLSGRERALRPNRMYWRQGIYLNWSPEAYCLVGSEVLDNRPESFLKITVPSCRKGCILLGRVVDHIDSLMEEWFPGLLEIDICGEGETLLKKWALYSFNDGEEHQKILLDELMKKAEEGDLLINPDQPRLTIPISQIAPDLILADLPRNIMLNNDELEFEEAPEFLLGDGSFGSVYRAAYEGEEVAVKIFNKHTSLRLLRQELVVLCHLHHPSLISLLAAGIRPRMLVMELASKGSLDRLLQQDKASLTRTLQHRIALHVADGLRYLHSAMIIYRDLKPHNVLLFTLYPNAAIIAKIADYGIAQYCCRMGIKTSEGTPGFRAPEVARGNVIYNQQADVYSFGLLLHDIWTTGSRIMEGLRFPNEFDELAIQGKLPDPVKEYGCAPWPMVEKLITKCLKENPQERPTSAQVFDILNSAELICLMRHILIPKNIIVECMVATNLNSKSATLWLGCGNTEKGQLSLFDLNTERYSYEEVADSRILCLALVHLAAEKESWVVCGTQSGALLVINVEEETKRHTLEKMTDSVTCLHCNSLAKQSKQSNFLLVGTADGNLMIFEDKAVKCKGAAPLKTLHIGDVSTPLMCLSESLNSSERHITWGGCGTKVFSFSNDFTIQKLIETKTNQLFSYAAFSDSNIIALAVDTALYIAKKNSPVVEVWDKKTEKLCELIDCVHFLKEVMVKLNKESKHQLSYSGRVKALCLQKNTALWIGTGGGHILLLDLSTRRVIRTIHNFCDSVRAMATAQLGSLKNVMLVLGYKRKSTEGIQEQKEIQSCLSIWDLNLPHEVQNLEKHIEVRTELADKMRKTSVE
# Sequence of Leucine-rich repeat serine/threonine-protein kinase 2 (Homo sapiens), Q5S007 [G2019S] (Q5S007 whole entry G2019S, the tested form may be a part): as the sequence (Q5S007 whole entry G2019S, the tested form may be a part) above
smiles,measurement,setting,value
CC1(Oc2ccc3[nH]nc(-c4cc(N5CCN(C(=O)CCOCCNc6cccc7c6C(=O)N(C6CCC(=O)NC6=O)C7)CC5)ncn4)c3c2)CC1 (stereo not drawn),IC50,[1],3 nM
same,IC50,[2],2 nM
same,Activity,[3],Active
CC1(Oc2ccc3[nH]nc(-c4cc(N5CCN(C(=O)CCOCCOCCNc6cccc7c6C(=O)N(C6CCCNC6=O)C7=O)CC5)ncn4)c3c2)CC1 (stereo not drawn),IC50,[1],2 nM
same,IC50,[2],2 nM
same,Activity,[4],inactive
same,Activity,[5],inactive
same,inhibition,[6],Active
CC1(Oc2ccc3[nH]nc(-c4cc(N5CCN(C(=O)CCOCCOCCOCCOCCNc6cccc7c6C(=O)N(C6CCC(=O)NC6=O)C7=O)CC5)ncn4)c3c2)CC1 (stereo not drawn),IC50,[1],1 nM
same,IC50,[2],1 nM
same,Activity,[7],Active
same,Activity,[8],inactive
same,Activity,[9],inactive
same,Activity,[10],inactive
same,Activity,[11],inactive
same,inhibition,[12],> 85%
same,Activity,[13],Active
same,Activity,[14],Active
same,Activity,[15],Active
same,Activity,[16],Active
same,Activity,[17],Active
same,Activity,[18],Active
same,Activity,[19],Active
same,Activity,[20],Active
same,Activity,[21],Active
same,inhibition,[22],Active
same,inhibition,[23],Active
same,inhibition,[24],> 85%
Cc1ncsc1-c1ccc([C@@H](C)NC(=O)[C@H]2C[C@H](O)CN2C(=O)[C@H](NC(=O)CCOCCOCCOCCC(=O)N2CCN(c3cc(-c4n[nH]c5ccc(OC6(C)CC6)cc45)ncn3)CC2)C(C)(C)C)cc1,IC50,[1],6 nM
same,IC50,[2],7 nM
CC1(Oc2ccc3[nH]nc(-c4cc(N5CCN(C(=O)CCOCCOCCOCCOCCNc6cccc7c6C(=O)N(C6CCC(=O)NC6=O)C7)CC5)ncn4)c3c2)CC1 (stereo not drawn),IC50,[1],3 nM
same,IC50,[2],3 nM
same,Activity,[3],Active
Nc1cccc2c1CN(C1CCC(=O)NC1=O)C2=O (stereo not drawn),Activity,[3],Active
CC1(Oc2ccc3[nH]nc(-c4cc(N5CCN(C(=O)CCOCCOCCNc6cccc7c6C(=O)N(C6CCC(=O)NC6=O)C7=O)CC5)ncn4)c3c2)CC1 (stereo not drawn),IC50,[1],1 nM
same,IC50,[2],1 nM
same,Activity,[7],Active
CC1(Oc2ccc3[nH]nc(-c4cc(N5CCN(C(=O)CCOCCNc6cccc7c6C(=O)N(C6CCC(=O)NC6=O)C7=O)CC5)ncn4)c3c2)CC1 (stereo not drawn),IC50,[1],2 nM
same,IC50,[2],1 nM
same,Activity,[3],Active
C[C@@H]1CN(c2cc(-c3n[nH]c4ccc(OC5(C)CC5)cc34)ncn2)C[C@H](C)O1,Activity,[25],inactive
same,Activity,[26],inactive
O=C1CCC(N2C(=O)c3cccc(NCCCCCNc4cccc5c4C(=O)N(C4CCC(=O)NC4=O)C5=O)c3C2=O)C(=O)N1 (stereo not drawn),Activity,[27],Active
Cc1ncsc1-c1ccc([C@H](C)NC(=O)[C@@H]2C[C@@H](O)CN2C(=O)[C@@H](NC(=O)CCOCCOCCOCCOCCC(=O)N2CCN(c3cc(-c4n[nH]c5ccc(OC6(C)CC6)cc45)ncn3)CC2)C(C)(C)C)cc1,IC50,[1],3 nM
same,IC50,[2],4 nM
CC1(Oc2ccc3[nH]nc(-c4cc(N5CCN(C(=O)CCOCCOCCNc6cccc7c6C(=O)N(C6CCC(=O)NC6=O)C7)CC5)ncn4)c3c2)CC1 (stereo not drawn),IC50,[1],3 nM
same,IC50,[2],2 nM
same,Activity,[3],Active
